21 molecules from patent US20230373985A1 (Origenis Gmbh, priority 2020, published 2023) can be followed below.

The target of test [1] is T1, wt human JAK1, catalytic site (Homo sapiens, UniProt P23458).
T1 construct: wt human JAK1, catalytic site; purchased ThermoFisher
Kind of test: HTRF KinEASE assay, JAK1. The settings on record: 2.5 μM ATP; read-out: IC50, Activity Toward JAK1. The class given is biochemical. The protocol:
(§1) Basic protocol for HTRF KinEASE assay (Cisbio/FRA) inhibitor studies involved two steps: • Enzymatic step: Addition of 4 μL of test compound in corresponding DMSO dilutions, 4 μL of kinase/substrate mixture, 2 μL of ATP into 384 well small volume plates. Incubation for at least 30 minutes at room temperature. • Detection step: Addition of 5 μL antibody and 5 μL streptavidin-XL665, read plate after 60 minutes. Data analysis of emission ratios according KinEASE assay protocol.
(§2) Kinase and assay components were adjusted to final concentrations according to kit protocol. For TYK2: 2 nM wt human TYK2, catalytic site (SignalChem/CAN), 1 μM HTRF KinEASE-TK Substrate-biotin, 1 μM ATP in 1× Kinase Buffer. […] For JAK2: 1 nM wt human JAK2, catalytic site (SignalChem/CAN), 1 μM HTRF KinEASE-TK Substrate-biotin, 100 μM ATP in 1× Kinase Buffer.
as §2

The target of test [2] is T2, wt human TYK2, catalytic site (Homo sapiens, UniProt P29597).
T2 construct: wt human TYK2, catalytic site; purchased SignalChem
T2 sequence (P29597 897-1176 limits assumed): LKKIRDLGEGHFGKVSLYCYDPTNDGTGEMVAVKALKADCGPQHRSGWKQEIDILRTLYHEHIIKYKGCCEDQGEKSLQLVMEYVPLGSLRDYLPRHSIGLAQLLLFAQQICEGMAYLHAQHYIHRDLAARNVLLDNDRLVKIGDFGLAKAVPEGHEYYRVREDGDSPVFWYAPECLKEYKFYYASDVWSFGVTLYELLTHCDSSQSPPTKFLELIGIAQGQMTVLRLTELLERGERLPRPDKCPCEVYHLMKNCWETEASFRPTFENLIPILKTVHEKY
The experiment in a line: HTRF KinEASE assay, TYK2. The note with it: 1 μM ATP; read-out: IC50, Activity Toward TYK2. The format is biochemical. The protocol:
as §1
(§3) Kinase and assay components were adjusted to final concentrations according to kit protocol. For TYK2: 2 nM wt human TYK2, catalytic site (SignalChem/CAN), 1 μM HTRF KinEASE-TK Substrate-biotin, 1 μM ATP in 1× Kinase Buffer. For JAK1: 4 nM wt human JAK1, catalytic site (ThermoFisher/USA), 1 μM HTRF KinEASE-TK Substrate-biotin, 2.5 μM ATP in 1× Kinase Buffer. For JAK2: 1 nM wt human JAK2, catalytic site (SignalChem/CAN), 1 μM HTRF KinEASE-TK Substrate-biotin, 100 μM ATP in 1× Kinase Buffer.
as §3

T1 sequence (P23458 875-1153 limits assumed): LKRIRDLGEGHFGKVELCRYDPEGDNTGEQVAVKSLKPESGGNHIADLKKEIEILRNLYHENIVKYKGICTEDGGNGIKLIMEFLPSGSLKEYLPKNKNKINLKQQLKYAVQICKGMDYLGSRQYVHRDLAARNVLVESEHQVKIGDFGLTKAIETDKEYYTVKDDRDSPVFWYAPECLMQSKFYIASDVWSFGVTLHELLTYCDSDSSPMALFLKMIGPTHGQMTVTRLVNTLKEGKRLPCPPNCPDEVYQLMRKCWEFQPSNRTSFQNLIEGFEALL

Turning to `Cn1ccc(Oc2ccc(Nc3cn(-c4c(Cl)cccc4Cl)nc3C(N)=O)cc2)n1` [compound 78, 1-(2,6-dichlorophenyl)-4-((4-((1-methyl-1H-pyrazol-3-yl)oxy)phenyl)amino)-1H-pyrazole-3-carboxamide], the IC50 in test [1] lay within 100 to 1000 nM; in test [2], 10 to 100 nM.
For the molecule `NC(=O)c1nn(-c2c(Cl)cccc2Cl)cc1Nc1ccc(-n2cnc(Cl)n2)cc1` [compound 79, 4-((4-(3-chloro-1H-1,2,4-triazol-1-yl)phenyl)amino)-1-(2,6-dichlorophenyl)-1H-pyrazole-3-carboxamide], the IC50 lay within 100 to 1000 nM in test [1] and 10 to 100 nM in test [2].
On the same counts, the results for `NC(=O)c1nn(-c2c(Cl)cccc2Cl)cc1Nc1ccc(C(=O)N2CCC2)cc1` [compound 92, 4-((4-(azetidine-1-carbonyl)phenyl)amino)-1-(2,6-dichlorophenyl)-1H-pyrazole-3-carboxamide] are 10 to 100 nM and 10 to 100 nM.
The corresponding values for `NC(=O)c1nn(-c2c(Cl)cccc2Cl)cc1Nc1ccc(C(=O)N2CCN(CC(F)(F)F)CC2)cc1` [compound 93, 1-(2,6-dichlorophenyl)-4-((4-(4-(2,2,2-trifluoroethyl)piperazine-1-carbonyl)phenyl)amino)-1H-pyrazole-3-carboxamide] are 100 to 1000 nM and 10 to 100 nM.
The corresponding values for `NC(=O)c1nn(-c2c(Cl)cccc2Cl)cc1Nc1ccc(C(=O)N2CCCCCC2)cc1` [compound 95, 4-((4-(azepane-1-carbonyl)phenyl)amino)-1-(2,6-dichlorophenyl)-1H-pyrazole-3-carboxamide] are 100 to 1000 nM and under 10 nM.
As for `NC(=O)c1nn(-c2c(Cl)cccc2Cl)nc1Nc1ccc(-n2ncc3c2CCOC3)cc1` [compound 110, 2-(2,6-Dichloro-phenyl)-5-[4-(6,7-dihydro-4H-pyrano[4,3-c]pyrazol-1-yl)-phenylamino]-2H-[1,2,3]triazole-4-carboxylic acid amide], the IC50 in test [1] and in test [2] was 10 to 100 nM in each case.
As for `NC(=O)c1nn(-c2c(Cl)cccc2Cl)nc1Nc1ccc(-n2cc3c(n2)CCOC3)cc1` [compound 111, 2-(2,6-Dichloro-phenyl)-5-[4-(6,7-dihydro-4H-pyrano[4,3-c]pyrazol-2-yl)-phenylamino]-2H-[1,2,3]triazole-4-carboxylic acid amide], the IC50 in test [1] and in test [2] was 100 to 1000 nM in each case.
For `NC(=O)c1nn(-c2c(Cl)cccc2Cl)nc1Nc1ccc(-c2nc(C(F)(F)F)cn2CCO)cc1` [compound 112, 2-(2,6-dichlorophenyl)-5-((4-(1-(2-hydroxyethyl)-4-(trifluoromethyl)-1H-imidazol-2-yl)phenyl)amino)-2H-1,2,3-triazole-4-carboxamide], the IC50 in test [1] and in test [2] was under 10 nM in each case.
Turning to `Cn1cc(C(F)(F)F)nc1-c1ccc(Nc2nn(-c3c(Cl)cccc3Cl)nc2C(N)=O)cc1` [compound 115, 2-(2,6-dichlorophenyl)-5-((4-(1-methyl-4-(trifluoromethyl)-1H-imidazol-2-yl)phenyl)amino)-2H-1,2,3-triazole-4-carboxamide], the IC50 was in the range of 100 to 1000 nM in test [1] and 10 to 100 nM in test [2].
On to `COCCn1cc(C(F)(F)F)nc1-c1ccc(Nc2nn(-c3c(Cl)cccc3Cl)nc2C(N)=O)cc1` [compound 118, 2-(2,6-dichlorophenyl)-5-((4-(1-(2-methoxyethyl)-4-(trifluoromethyl)-1H-imidazol-2-yl)phenyl)amino)-2H-1,2,3-triazole-4-carboxamide], for which the values for the IC50 in test [1] and in test [2] were 10 to 100 nM and 100 to 1000 nM, respectively.
On the same counts, the results for `COCCNC(=O)c1ccc(Nc2nn(-c3c(Cl)cccc3Cl)nc2C(N)=O)cc1` [compound 123, 2-(2,6-dichlorophenyl)-5-((4-((2-methoxyethyl)carbamoyl)phenyl)amino)-2H-1,2,3-triazole-4-carboxamide] are under 10 nM and 10 to 100 nM.
On the same counts, the results for `CC(C)n1cnnc1-c1ccc(Nc2nn(-c3c(Cl)cccc3Cl)nc2C(N)=O)cc1` [compound 125, 2-(2,6-dichlorophenyl)-5-((4-(4-isopropyl-4H-1,2,4-triazol-3-yl)phenyl)amino)-2H-1,2,3-triazole-4-carboxamide] are 10 to 100 nM and 10 to 100 nM.
As to `CCc1cnnn1-c1ccc(Nc2nn(-c3c(Cl)cccc3Cl)nc2C(N)=O)cc1` [compound 126, 2-(2,6-dichlorophenyl)-5-((4-(5-ethyl-1H-1,2,3-triazol-1-yl)phenyl)amino)-2H-1,2,3-triazole-4-carboxamide], the IC50 in test [1] was under 10 nM; in test [2], 10 to 100 nM.
The corresponding values for `CN1CCN(C(=O)c2ccc(Nc3nn(-c4c(Cl)cccc4Cl)nc3C(N)=O)nc2)CC1` [compound 127, 2-(2,6-dichlorophenyl)-5-((5-(4-methylpiperazine-1-carbonyl)pyridin-2-yl)amino)-2H-1,2,3-triazole-4-carboxamide] are 100 to 1000 nM and 100 to 1000 nM.
Regarding `NC(=O)c1nn(-c2c(Cl)cccc2Cl)nc1Nc1ccc(C(=O)NCCF)cc1` [compound 128, 2-(2,6-dichlorophenyl)-5-((4-((2-fluoroethyl)carbamoyl)phenyl)amino)-2H-1,2,3-triazole-4-carboxamide], the IC50 in test [1] and in test [2] was under 10 nM each time.
Take `NC(=O)c1nn(-c2c(Cl)cccc2Cl)nc1Nc1ccc(C(=O)N2CC(F)(F)C(F)(F)C2)cn1` [compound 132, 2-(2,6-dichlorophenyl)-5-((5-(3,3,4,4-tetrafluoropyrrolidine-1-carbonyl)pyridin-2-yl)amino)-2H-1,2,3-triazole-4-carboxamide]: the half-inhibitory concentration (IC50) in test [1] and in test [2] was 100 to 1000 nM in each case.
Take `CN(C)[C@@H]1CCN(C(=O)c2ccc(Nc3nn(-c4c(Cl)cccc4Cl)nc3C(N)=O)nc2)C1` [compound 133, (R)-2-(2,6-dichlorophenyl)-5-((5-(3-(dimethylamino)pyrrolidine-1-carbonyl)pyridin-2-yl)amino)-2H-1,2,3-triazole-4-carboxamide]: the IC50 in test [1] lay within 10 to 100 nM; in test [2], 100 to 1000 nM.
With `Cc1nnnn1-c1ccc(Nc2nn(-c3c(Cl)cccc3Cl)nc2C(N)=O)nc1` [compound 134, 2-(2,6-dichlorophenyl)-5-((5-(5-methyl-1H-tetrazol-1-yl)pyridin-2-yl)amino)-2H-1,2,3-triazole-4-carboxamide], the IC50 in test [1] and in test [2] was 10 to 100 nM throughout.
For the molecule `NC(=O)c1nn(-c2c(Cl)cccc2Cl)nc1Nc1ccc(C(=O)N2CC(F)C2)cn1` [compound 135, 2-(2,6-dichlorophenyl)-5-((5-(3-fluoroazetidine-1-carbonyl)pyridin-2-yl)amino)-2H-1,2,3-triazole-4-carboxamide], the IC50 in test [1] and in test [2] was 10 to 100 nM each time.
For the molecule `NC(=O)c1nn(-c2c(Cl)cccc2Cl)nc1Nc1ccc(C(=O)N2CCCC2)cn1` [compound 137, 2-(2,6-dichlorophenyl)-5-((5-(pyrrolidine-1-carbonyl)pyridin-2-yl)amino)-2H-1,2,3-triazole-4-carboxamide], the IC50 in test [1] and in test [2] was 10 to 100 nM in each case.
For `Cc1cccc2nnc(-c3ccc(Nc4nn(-c5c(Cl)cccc5Cl)nc4C(N)=O)cn3)n12` [compound 139, 2-(2,6-dichlorophenyl)-5-((6-(5-methyl-[1,2,4]triazolo[4,3-a]pyridin-3-yl)pyridin-3-yl)amino)-2H-1,2,3-triazole-4-carboxamide], the results for the IC50 in test [1] and in test [2] were 10 to 100 nM and 100 to 1000 nM, respectively.
